Format in all cases: cell-based
One assay addresses adenosine 2a receptor (Homo sapiens, UniProt P29274). Briefly: Agonist activity against adenosine 2a receptor (CHO cells, cAMP/SPAP reporter). The note with it: CHO cells transfected with human receptor; basal cAMP via SPAP; mean of all the versions tested. The method, then:
(§1) (1) Agonist activity against adenosine 2a, adenosine 1 and adenosine 3 receptor subtypes.
(§2) The effect of test compounds was determined by their effects on basal levels of cAMP (A2a) or on forskolin-enhanced cAMP (A1 and A3) as reflected by changes in levels of SPAP.

Another assay deals with T1, adenosine 1 receptor (Homo sapiens, UniProt P30542).
T1 sequence (P30542 1-326): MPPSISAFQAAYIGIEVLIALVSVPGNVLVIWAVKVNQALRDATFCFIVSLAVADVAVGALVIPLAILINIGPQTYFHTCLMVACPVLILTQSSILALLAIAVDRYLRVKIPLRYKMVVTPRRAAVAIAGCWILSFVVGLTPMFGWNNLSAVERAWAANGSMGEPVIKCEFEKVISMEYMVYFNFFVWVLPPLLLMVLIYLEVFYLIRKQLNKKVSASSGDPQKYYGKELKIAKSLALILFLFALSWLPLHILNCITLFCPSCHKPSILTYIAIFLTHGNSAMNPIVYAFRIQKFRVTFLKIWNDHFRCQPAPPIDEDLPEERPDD
The experiment in a line: Agonist activity against adenosine 1 receptor (CHO cells, forskolin-enhanced cAMP/SPAP reporter). Conditions: CHO cells transfected with human receptor; forskolin-enhanced cAMP via SPAP; mean of all the versions tested. The method, then: as §1, §2

In another assay the target is T2, adenosine 3 receptor (Homo sapiens, UniProt P0DMS8).
T2 sequence (P0DMS8 1-318): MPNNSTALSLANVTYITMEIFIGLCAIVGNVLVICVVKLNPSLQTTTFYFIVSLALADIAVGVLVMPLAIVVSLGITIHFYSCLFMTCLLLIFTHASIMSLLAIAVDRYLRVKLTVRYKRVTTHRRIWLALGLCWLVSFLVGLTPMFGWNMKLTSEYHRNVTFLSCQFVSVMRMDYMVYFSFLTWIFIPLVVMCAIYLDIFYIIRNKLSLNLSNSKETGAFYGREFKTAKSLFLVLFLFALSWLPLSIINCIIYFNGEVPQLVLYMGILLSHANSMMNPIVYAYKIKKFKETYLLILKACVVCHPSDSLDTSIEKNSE
Briefly: Agonist activity against adenosine 3 receptor (CHO cells, forskolin-enhanced cAMP/SPAP reporter). Conditions: CHO cells transfected with human receptor; forskolin-enhanced cAMP via SPAP; mean of all the versions tested. The method, then: as §1, §2

Counter-ions that a name gives are not always drawn.

Sequence of adenosine 2a receptor (P29274 whole entry): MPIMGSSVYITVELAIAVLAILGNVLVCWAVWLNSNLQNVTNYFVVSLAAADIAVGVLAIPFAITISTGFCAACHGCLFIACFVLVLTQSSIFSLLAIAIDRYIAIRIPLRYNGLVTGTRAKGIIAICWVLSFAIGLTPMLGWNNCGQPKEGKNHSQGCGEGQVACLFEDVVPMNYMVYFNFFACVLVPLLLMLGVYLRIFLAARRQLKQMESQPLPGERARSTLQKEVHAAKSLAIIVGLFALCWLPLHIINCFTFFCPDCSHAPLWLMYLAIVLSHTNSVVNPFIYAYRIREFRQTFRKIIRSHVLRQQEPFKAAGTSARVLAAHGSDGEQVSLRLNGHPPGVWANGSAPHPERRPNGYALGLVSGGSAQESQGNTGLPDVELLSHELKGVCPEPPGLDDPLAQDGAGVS

Take `Cn1nnc(C2OC(n3cnc4c(NCc5cccc(I)c5)nc(NC(CO)Cc5ccccc5)nc43)C(O)C2O)n1` [Example 109, (2R,3R,4S,5R)-2-[2-(1S-Hydroxymethyl-2-phenyl-ethylamino)-6-(3-iodo-benzylamino)-purin-9-yl]-5-(2-methyl-2H-tetrazol-5-yl)-tetrahydro-furan-3,4-diol Formate]: at adenosine 2a receptor, the “A2a EC50 as a ratio of that of NECA” value amounted to 8.54. The “A1 EC50 as a ratio of that of NECA” value on adenosine 1 receptor is given as 17.70. Moreover, on adenosine 3 receptor, the “A3 EC50 as a ratio of that of NECA” value is recorded as over 446.
Consider `CC(C)n1nnc([C@H]2O[C@@H](n3cnc4c(NCCC(C)(C)C)nc(NCCc5cn(C)cn5)nc43)[C@H](O)[C@@H]2O)n1.O=CO` [Example 56, (2R,3R,4S,5R)-2-{6-(3,3-Dimethyl-butylamino)-2-[2-(1-methyl-1H-imidazol-4-yl)-ethylamino]-purin-9-yl}-5-(2-isopropyl-2H-tetrazol-5-yl)-tetrahydro-furan-3,4-diol Formate], for which, at adenosine 2a receptor, the “A2a EC50 as a ratio of that of NECA” value amounted to 4.90. The “A1 EC50 as a ratio of that of NECA” value on adenosine 1 receptor came to 570.90. For the same molecule, the “A3 EC50 as a ratio of that of NECA” value on adenosine 3 receptor is over 297.
The matching figures for `Cn1nnc(C2OC(n3cnc4c(NCC(c5ccccc5)c5ccccc5)nc(NC(CO)Cc5ccccc5)nc43)C(O)C2O)n1` [Example 95, (2R,3R,4S,5R)-2-[6-(2,2-Diphenyl-ethylamino)-2-(1S-hydroxymethyl-2-phenyl-ethylamino)-purin-9-yl]-5-(2-methyl-2H-tetrazol-5-yl)-tetrahydro-furan-3,4-diol Formate]: 2.10, 4687.00 and over 153.
On to `CCn1nnc(C2OC(n3cnc4c(NC5CCCC5)nc(NC5CCC(N)CC5)nc43)C(O)C2O)n1.O=CO.O=CO` [Example 101, (2R,3R,4S,5R)-2-[2-(trans-4-Amino-cyclohexylamino)-6-cyclopentylamino-purin-9-yl]-5-(2-ethyl-2H-tetrazol-5-yl)-tetrahydro-furan-3,4-diol bis(Formate)], for which the “A2a EC50 as a ratio of that of NECA” value at adenosine 2a receptor is on record as 1.51. The “A1 EC50 as a ratio of that of NECA” value at adenosine 1 receptor was 39.00. Besides, the “A3 EC50 as a ratio of that of NECA” value on adenosine 3 receptor was over 195.
The corresponding values for `CCC(CC)Nc1nc(NCCN2CCOCC2)nc2c1ncn2C1OC(c2nnn(C)n2)C(O)C1O.O=CO.O=CO` [Example 91, (2R,3R,4S,5R)-2-[6-(1-Ethyl-propylamino)-2-(2-morpholin-4-yl-ethylamino)-purin-9-yl]-5-(2-methyl-2H-tetrazol-5-yl)-tetrahydro-furan-3,4-diol Diformate] are 1.75, over 7461.00 and over 270.
The corresponding values for `CC(=O)O.CCC(CC)Nc1nc(NCCc2cn(C)cn2)nc2c1ncn2[C@@H]1O[C@H](c2nnn(CC)n2)[C@@H](O)[C@H]1O` [Example 6, (2R,3R,4S,5R)-2-{6-(1-Ethyl-propylamino)-2-[2-(1-methyl-1H-imidazol-4-yl)-ethylamino]-purin-9-yl}-5-(2-ethyl-2H-tetrazol-5-yl)-tetrahydro-furan-3,4-diol Acetate] are 0.14, 34.4 and over 256.
The corresponding values for “(2R,3S,4R,5R)-2-(2-Ethyl-2H-tetrazol-5-yl)-5-[6-(1S-hydroxymethyl-2-ethylamino)-2-(2-morpholin-4-yl-ethylamino)-purin-9-yl]-tetrahydro-furan-3,4-diol Formate [Example 78]” are 4.00, 31.00 and over 181.
With `CCn1nnc(C2OC(n3cnc4c(NC(CO)Cc5ccccc5)nc(NCCN5CCCCC5)nc43)C(O)C2O)n1` (stereo not drawn) [Example 103], the “A2a EC50 as a ratio of that of NECA” value on adenosine 2a receptor is 3.91. Also, the “A1 EC50 as a ratio of that of NECA” value on adenosine 1 receptor worked out at 48.50. In addition, the “A3 EC50 as a ratio of that of NECA” value on adenosine 3 receptor is given as over 184.
Consider `CCC(CC)Nc1nc(NCCc2ccccn2)nc2c1ncn2C1OC(c2nnn(C)n2)C(O)C1O.O=CO.O=CO` [Example 89, (2R,3R,4S,5R)-2-[6-(1-Ethyl-propylamino)-2-(2-pyridin-2-yl-ethylamino)-purin-9-yl]-5-(2-methyl-2H-tetrazol-5-yl)-tetrahydro-furan-3,4-diol Diformate], for which, on adenosine 2a receptor, the “A2a EC50 as a ratio of that of NECA” value is 2.22. Further, the “A1 EC50 as a ratio of that of NECA” value at adenosine 1 receptor is over 9363.00. Besides, the “A3 EC50 as a ratio of that of NECA” value at adenosine 3 receptor is over 243.
`Cn1nnc(C2OC(n3cnc4c(NC(CO)Cc5ccccc5)nc(NC5CCC(N)CC5)nc43)C(O)C2O)n1` [Example 35, (2R,3R,4S,5R)-2-[2-(trans-4-Amino-cyclohexylamino)-6-(1S-hydroxymethyl-2-phenyl-ethylamino)-purin-9-yl]-5-(2-methyl-2H-tetrazol-5-yl)-tetrahydro-furan-3,4-diol bis(Formate)]: the “A2a EC50 as a ratio of that of NECA” value on adenosine 2a receptor turned out to be 0.79. Moreover, the “A1 EC50 as a ratio of that of NECA” value at adenosine 1 receptor is 123. Moreover, the “A3 EC50 as a ratio of that of NECA” value at adenosine 3 receptor is over 201.
On to `CCn1nnc([C@H]2O[C@@H](n3cnc4c(NCCC(C)(C)C)nc(N[C@@H]5CCC[C@H]5O)nc43)[C@H](O)[C@@H]2O)n1.O=C(O)C(F)(F)F.O=C(O)C(F)(F)F` [Example 60], for which the “A2a EC50 as a ratio of that of NECA” value on adenosine 2a receptor amounted to 4.24. The “A1 EC50 as a ratio of that of NECA” value on adenosine 1 receptor amounted to 69.10. Further, the “A3 EC50 as a ratio of that of NECA” value on adenosine 3 receptor was over 385.
The matching figures for `CCn1nnc([C@H]2O[C@@H](n3cnc4c(NCC(c5ccccc5)c5ccccc5)nc(NC5CCS(=O)(=O)CC5)nc43)[C@H](O)[C@@H]2O)n1.O=C(O)C(F)(F)F` [Example 115, (2R,3R,4S,5R)-2-[6-(2,2-Diphenyl-ethylamino)-2-(1,1--dioxo-hexahydro-1.lamda.6-thiopyran-4-ylamino)-purin-9-yl]-5-(2-ethyl-2H-tetrazol-5-yl)-tetrahydro-furan-3,4-diol Trifluoroacetate]: 0.36, 37.7 and over 297.0.
The matching figures for `CCC(CC)Nc1nc(NCCc2cn(C)cn2)nc2c1ncn2[C@@H]1O[C@H](c2nnn(C(C)C)n2)[C@@H](O)[C@H]1O.O=CO` [Example 59, (2R,3R,4S,5R)-2-{6-(1-Ethyl-propylamino)-2-[2-(1-methyl-1H-imidazol-4-yl)-ethylamino]-purin-9-yl}-5-(2-isopropyl-2H-tetrazol-5-yl)-tetrahydro-furan-3,4-diol Formate]: 2.34, 92.30 and over 749.
For the molecule `Cn1nnc(C2OC(n3cnc4c(NCC(c5ccccc5)c5ccccc5)nc(NC5CCC(N)CC5)nc43)C(O)C2O)n1.O=CO.O=CO` [Example 93, (2R,3R,4S,5R)-2-[2-(trans-4-Amino-cyclohexylamino)-6-(2,2-diphenyl-ethylamino)-purin-9-yl]-5-(2-methyl-2H-tetrazol-5-yl)-tetrahydro-furan-3,4-diol Diformate], the “A2a EC50 as a ratio of that of NECA” value on adenosine 2a receptor stood at 5.07. The “A1 EC50 as a ratio of that of NECA” value at adenosine 1 receptor was 922.00. Moreover, the “A3 EC50 as a ratio of that of NECA” value on adenosine 3 receptor is over 153.
Regarding `CCn1nnc(C2OC(n3cnc4c(NCc5cccc(I)c5)nc(NC5CCNC5)nc43)C(O)C2O)n1` [Example 23, (2R,3S,4R,5R)-2-(2-Ethyl-2H-tetrazol-5-yl)-5-[6-(3-iodo-benzylamino)-2-(pyrrolidin-3R-ylamino)-purin-9-yl]-tetrahydro-furan-3,4-diol Diformate], the “A2a EC50 as a ratio of that of NECA” value at adenosine 2a receptor amounted to 0.8. Also, the “A1 EC50 as a ratio of that of NECA” value at adenosine 1 receptor stood at 159. In addition, at adenosine 3 receptor, the “A3 EC50 as a ratio of that of NECA” value is recorded as over 336.
The corresponding values for `Cn1nnc(C2OC(n3cnc4c(NC(CO)Cc5ccccc5)nc(NC(CO)Cc5ccccc5)nc43)C(O)C2O)n1` [Example 110, (2R,3R,4S,5R)-2-[2,6-Bis-(1S-Hydroxymethyl-2-phenyl-ethylamino)-purin-9-yl]-5-(2-methyl-2H-tetrazol-5-yl)-tetrahydro-furan-3,4-diol Formate] are 5.00, 3.13 and over 315.
Consider `CCn1nnc([C@H]2O[C@@H](n3cnc4c(N)nc(NCCc5ccc(OC)cc5)nc43)[C@H](O)[C@@H]2O)n1.O=CO` [Example 18, (2R,3R,4S,5R)-2-{6-Amino-2-[2-(4-methoxy-phenyl)-ethylamino]-purin-9-yl}-5-(2-ethyl-2H-tetrazol-5-yl)-tetrahydro-furan-3,4-diol Formate], for which the “A2a EC50 as a ratio of that of NECA” value at adenosine 2a receptor is 0.36. Besides, the “A1 EC50 as a ratio of that of NECA” value on adenosine 1 receptor amounted to 136.7. Moreover, the “A3 EC50 as a ratio of that of NECA” value at adenosine 3 receptor is recorded as over 223.

Source of the values: patent US6528494B2 (priority 1996, dated 2003).
